Reference: patent US20120252721A1 (priority 2011, published 2012)

Tests used:
in vitro = type: cell-based, human; conditions: human; Table 1B, cellular viability
Method: (§1) For cytotoxicity evaluation, HPC cells were treated with compounds as described above in the absence of the genotype 2a virus and cellular viability was monitored using the Cell Titer 96 AQueous One Solution Cell Proliferation Assay (Promega). Plates were then read at 490 nm in a Victor^3V 1420 multilabel counter (Perkin Elmer) and CC50 concentrations were determined using Microsoft Excel and XLfit 4.1 software.
as §1, with “H1a-luc or Zluc” for “HPC”, “above” for “above in the absence of the genotype 2a virus”

[1] = tested on: HCV genotype 1a H77 strain subgenomic luciferase replicon (H1a-luc); assay: Luciferase replicon assay, genotype 1a; type: cell-based; conditions: Hepatitis C virus; genotype 1a; read-out: EC50 1a
Method: (§2) Drug titration analysis was performed using the luciferase replicon assay described herein.
(§3) The HCV luciferase replicon assay measures the ability of a test compound to inhibit HCV replication in cell culture after 3 days of treatment in a human hepatoma cell line (Huh-7) bearing an HCV replicon containing a luciferase-neomycin phosphotransferase fusion gene. The inhibition of HCV replication was measured by quantification of luciferase protein expression. Briefly, Huh-7 cells containing either the HCV genotype 1a H77 strain or genotype 1b Con1 strain subgenomic luciferase replicon (H1a-luc or Zluc, respectively) were grown in DMEM containing glucose, L-glutamine and sodium pyruvate, 10% fetal bovine serum (FBS), 100 IU/mL penicillin, 100 μg/mL streptomycin, 2 mM GlutaMAX, non-essential amino acids and 0.25 (H1a-luc) or 0.5 (Zluc) mg/mL G418. GlutaMAX was obtained from Invitrogen, Corp.; all other media reagents were obtained from Mediatech, Inc. For dose-response testing, the cells were seeded in 96-well plates at 1×10^4 (H1a-luc) or 7.5×10^3 (Zluc) cells/well in a volume of 50 μL, and incubated at 37° C./5% CO2. Three hours after plating, 50 μL of ten 5-fold serial dilutions of compound were added, and cell cultures were incubated at 37° C./5% CO2 for 72 hours. In all cases, Huh-7 cells lacking the HCV replicon served as negative control. To assess luciferase expression, the media/compound was removed from the plates and ONE-glo Luciferase assay reagent (Promega) was added to each well. The assay plates were shaken for 3 minutes at room temperature and luciferase activity for each well was measured with a 1 sec read time on the Victor^3V multilabel counter using a 700 nm cut-off filter (Perkin Elmer). EC50 values were calculated from dose response curves from the resulting best-fit equations determined by Microsoft Excel and XLfit 4.1 software.

[2] = tested on: HCV genotype 1b Con1 strain subgenomic luciferase replicon (Zluc); assay: Luciferase replicon assay, genotype 1b; type: cell-based; conditions: Hepatitis C virus
Method: as §3

[3] = tested on: HCV genotype 4a NS5A within the 1b-replicon; assay: Luciferase replicon assay, NS5A-intergenotypic stable cell line genotype 4a; type: cell-based; conditions: Hepatitis C virus, read-out: EC50 4a
Text: (§4) The nucleotide sequences of the NS5A region of genotype 2a (GenBank Accession # AB047639), genotype 3a (GenBank Accession #D17763), and genotype 4a (GenBank Accession# DQ418788) were synthesized by an outside vendor. The NS5A region of each of these genotypes included the first 11 amino acids of the protease recognition sequence of genotype 1b, as well as the last 10 amino acids of genotype 1b. The NS5A gene cassettes were excised with site specific restriction endonucleases and ligated into a ZS11-luciferase genotype 1b backbone (backbone contains the genotype 1b NS3 protease, NS4a, NS4b, and NS5b coding regions) with similarly cut restriction enzyme sites. Thus, the newly constructed plasmid contains a genotype 2a-, 3a- or 4a-specific NS5A gene within the 1b-replicon.
(§5) These new intergenotypic plasmids were used to establish stable cell lines. RNA was generated from the NS5A intergenotypic plasmids and used in conjunction with a lipofectin reagent to transfect a cured Huh7 cell line. Transfected cells were selected for with G418. After selection has occurred the stable cell lines were propagated, tested for luciferase activity, and RT-PCR with genotype specific primers (either 1a, 2a, 3a, or 4a). Stable cell lines containing the intergenotypic replicon were then fully sequenced and analyzed for proper expression of NS3, NS5A and NS5B proteins.
as §2, §3

HCV genotype 2a = assay: Genotype 2a assay (NS5A-intergenotypic luciferase replicon / genotype 2a infectious virus assay); type: cell-based; conditions: Hepatitis C virus, read-out: EC50 2a
Text: as §4, §5, §2
The genotype 2a infectious virus assay measures the ability of a test compound to inhibit HCV replication in cell culture after 5 days of treatment at the time of HCV genotype 2a virus infection of a permissive human hepatoma cell line (HPC cells). The inhibition of HCV replication was measured by quantification of HCV core protein expression by an enzyme-linked immunosorbent assay (ELISA). Briefly, HPC cells were grown in DMEM containing glucose, L-glutamine and sodium pyruvate, 10% FBS, 100 IU/mL penicillin, 100 μg/mL streptomycin, 2 mM GlutaMAX, and non-essential amino acids. GlutaMAX was obtained from Invitrogen, Corp.; all other media reagents were obtained from Mediatech, Inc. For dose-response testing, ninety-six-well plates were seeded with HPC cells at a density of 2.5×10^3 cells/well in a volume of 50 μL, and incubated at 37° C./5% CO2. Three hours after plating, 50 μL of ten 5-fold serial dilutions of compound and 100 μL of genotype 2a virus were added, and cell cultures were incubated at 37° C./5% CO2. In all cases, mock infected HPC cells served as negative control. At 16 hours post treatment and infection, the virus inoculum was removed by aspiration. The cultures were treated at the same final concentrations of drug diluted in media and incubated for 4 additional days at 37° C./5% CO2. Subsequently, the core ELISA was performed as follows. The plates were fixed for 90 seconds with acetone/methanol (1:1, v/v), washed three times with KPL wash solution (KPL, Inc.), blocked for 1 hr at room temperature with TNE buffer containing 10% FBS and then incubated for 2 hr at 37° C. with the anti-HCV core mouse monoclonal antibody (Thermo Scientific) diluted in the same buffer. After washing three times with KPL wash solution, the cells were incubated for 1 hr at 37° C. with an anti-mouse immunoglobulin G-peroxidase conjugate in TNE/10% FBS. After washing as described above, the reaction was developed with O-phenylenediamine (Invitrogen). The reaction was stopped after 30 min with 2 NH2SO4, and absorbance was read at 490 nm in a Victor^3V 1420 multilabel counter (Perkin Elmer) and EC50 concentrations were determined using Microsoft Excel and XLfit 4.1 software.
The HCV luciferase replicon assay measures the ability of a test compound to inhibit HCV replication in cell culture after 3 days of treatment in a human hepatoma cell line (Huh-7) bearing an HCV replicon containing a luciferase-neomycin phosphotransferase fusion gene. […]

[4] = tested on: HCV genotype 3a NS5A within the 1b-replicon; assay: Luciferase replicon assay, NS5A-intergenotypic stable cell line genotype 3a; type: cell-based; conditions: Hepatitis C virus, read-out: EC50 3a
Text: as §4, §5, §2, §3

HCV = conditions: combination therapy (Poynard et al.); cited from earlier work

In the case of COC(=O)NC(C(=O)N1CCCC1c1ncc(-c2cc3sc(-c4ccc5[nH]c(C6CCCN6C(=O)C(NC(=O)OC)C(C)C)nc5c4)cc3s2)[nH]1)C(C)C (stereo in doubt) [Compound A176, ((S)-1-{(S)-2-[5-(5-{(S)-2-[1-((S)-2-methoxycarbonylamino-3-methyl-butyryl)-pyrrolidin-2-yl]-3H-benzoimidazol-5-yl}-thieno[3,2-b]thiophen-2-yl)-1H-imidazol-2-yl]-pyrrolidine-1-carbonyl}-2-methyl-propyl)-carbamic acid methyl ester], the CC50 (in vitro) is reported as 10000 to 75000 nM, the EC50 [1] is reported as 0.1 to 1 nM and the EC50 [2] is reported as < 0.1 nM. For the same compound, the EC50 [3] was 0.1 to 1 nM, the EC50 (HCV genotype 2a) was 0.1 to 1 nM and the EC50 [4] was 0.1 to 1 nM.
With COC(=O)N[C@H](C(=O)N1CCC[C@H]1c1ncc(-c2ccc(-c3cc4sc(-c5ccc6[nH]c([C@@H]7CCCN7C(=O)[C@H](NC(=O)OC)c7ccccc7)nc6c5)cc4s3)cc2)[nH]1)C(C)C [Compound A194, [(S)-1-((S)-2-{4-[4-(5-{(S)-2-[1-((R)-2-methoxycarbonylamino-2-phenyl-acetyl)-pyrrolidin-2-yl]-3H-benzoimidazol-5-yl}-thieno[3,2-b]thiophen-2-yl)-phenyl]-1H-imidazol-2-yl}-pyrrolidine-1-carbonyl)-2-methyl-propyl]-carbamic acid methyl ester] the CC50 (in vitro) was > 75000 nM, the EC50 [1] was 0.1 to 1 nM and the EC50 [2] was < 0.1 nM. The EC50 [3] was < 0.1 nM, the EC50 (HCV genotype 2a) was 1 to 10 nM and the EC50 [4] was 0.1 to 1 nM.
In the case of COC(=O)N[C@H](C(=O)N1CCC[C@H]1c1nc2ccc(-c3csc4c(C#Cc5cnc([C@@H]6CCCN6C(=O)[C@H](NC(=O)OC)c6ccccc6)[nH]5)csc34)cc2[nH]1)C(C)C [Compound A206], the CC50 (in vitro) is reported as > 75000 nM, the EC50 [2] is reported as < 0.1 nM and the EC50 [3] is reported as < 0.1 nM. For the same compound, the EC50 (HCV genotype 2a) was < 0.1 nM and the EC50 [4] was < 0.1 nM.
In the case of COC(=O)N[C@@H](C(=O)N1CCCC1c1nc2ccc(-c3csc4c(-c5ccc6[nH]c(C7CCCN7C(=O)[C@H](NC(=O)OC)C(C)C)nc6c5)csc34)cc2[nH]1)c1ccccc1 (stereo partly drawn) [Compound A208], the CC50 (in vitro) is reported as > 75000 nM, the EC50 [1] is reported as < 0.1 nM and the EC50 [2] is reported as < 0.1 nM. For the same compound, the EC50 [3] was < 0.1 nM, the EC50 (HCV genotype 2a) was < 0.1 nM and the EC50 [4] was < 0.1 nM.
In the case of alpha-interferon and ribavirin, the “sustained efficacy, share of patients” value (HCV) is listed as “about 40%”.
